This note sets out measurements from patent US9908895B2, “Tricyclic fused thiophene derivatives as JAK inhibitors” (Incyte Corporation, priority 2012, dated 2018).

The test system of the test is human JAK1. Description: In vitro JAK kinase assay (HTRF), JAK1. Particulars: ratio of JAK2 IC50 to JAK1 IC50 at 1 mM ATP. It counts as biochemical. How it is done: Compounds herein were tested for inhibitory activity of JAK targets according to the following in vitro assay described in Park et al., Analytical Biochemistry 1999, 269, 94-104. The catalytic domains of human JAK1 (a.a. 837-1142), JAK2 (a.a. 828-1132) and JAK3 (a.a. 781-1124) were expressed using baculovirus in insect cells and purified. The catalytic activity of JAK1, JAK2 or JAK3 was assayed by measuring the phosphorylation of a biotinylated peptide. The phosphorylated peptide was detected by homogenous time resolved fluorescence (HTRF). IC50s of compounds were measured for each kinase in the 40 μL reactions that contain the enzyme, ATP and 500 nM peptide in 50 mM Tris (pH 7.8) buffer with 100 mM NaCl, 5 mM DTT, and 0.1 mg/mL (0.01%) BSA. For the 1 mM IC50 measurements, ATP concentration in the reactions was 1 mM. Reactions were carried out at room temperature for 1 hour and then stopped with 20 μL 45 mM EDTA, 300 nM SA-APC, 6 nM Eu-Py20 in assay buffer (Perkin Elmer, Boston, Mass.). Binding to the Europium labeled antibody took place for 40 minutes and HTRF signal was measured on a PHERA star plate reader (BMG, Cary, N.C.). The Example compounds were each tested in the Example A assay (see Table 1 for data for the compounds of the examples as tested by the assay of Example A at 1 mM ATP).
Background: In TR-FRET formats the signal depends on donor and acceptor labels being close together.
On to `C[C@@H](O)c1nc2cnc3ccsc3c2n1[C@H]1CCN(CCCC#N)C1` [Example 65, 4-((3S)-3-{2-[(1R)-1-Hydroxyethyl]-1H-imidazo[4,5-d]thieno[3,2-b]pyridin-1-yl}pyrrolidin-1-yl)butanenitrile], for which the JAK2/JAK1 is >10.

For the molecule `C[C@@H](O)c1nc2cnc3ccsc3c2n1[C@H]1CCN(CCCCC#N)C1` [Example 66, 5-((3S)-3-{2-[(1R)-1-Hydroxyethyl]-1H-imidazo[4,5-d]thieno[3,2-b]pyridin-1-yl}pyrrolidin-1-yl)pentanenitrile], the JAK2/JAK1 is listed as >10. With `C[C@@H](O)c1nc2cnc3ccsc3c2n1[C@H]1CC[C@H](CC#N)[C@H](N)C1` [Example 67, ((1R,2R,4S)-2-Amino-4-{2-[(1R)-1-hydroxyethyl]-1H-imidazo[4,5-d]thieno[3,2-b]pyridin-1-yl}cyclohexyl)acetonitrile] the figure was >10. Under `CC(N)c1nc2cnc3ccsc3c2n1[C@H]1CC[C@H](CC#N)OC1.O=C(O)C(F)(F)F` (stereo partly drawn) [Example 68, {(2R,5S)-5-[2-(1-Aminoethyl)-1H-imidazo[4,5-d]thieno[3,2-b]pyridin-1-yl]tetrahydro-2H-pyran-2-yl}acetonitrile trifluoroacetate] stands >10; under `CC(=O)NC(C)c1nc2cnc3ccsc3c2n1[C@H]1CC[C@H](CC#N)OC1` (stereo partly drawn) [Example 69, N-(1-{1-[(3S,6R)-6-(Cyanomethyl)tetrahydro-2H-pyran-3-yl]-1H-imidazo[4,5-d]thieno[3,2-b]pyridin-2-yl}ethyl)acetamide], >10. As to `CNC(C)c1nc2cnc3ccsc3c2n1[C@H]1CC[C@H](CC#N)OC1` (stereo partly drawn) [Example 70, ((2R,5S)-5-{2-[1-(Methylamino)ethyl]-1H-imidazo[4,5-d]thieno[3,2-b]pyridin-1-yl}tetrahydro-2H-pyran-2-yl)acetonitrile], the JAK2/JAK1 is on record as >10. With `CC(F)c1nc2cnc3ccsc3c2n1[C@H]1CC[C@H](CC#N)OC1` (stereo partly drawn) [Example 71, {(2R,5S)-5-[2-(1-Fluoroethyl)-1H-imidazo[4,5-d]thieno[3,2-b]pyridin-1-yl]tetrahydro-2H-pyran-2-yl}acetonitrile] the figure was >10; with `N#CCc1nc2cnc3ccsc3c2n1[C@H]1CC[C@H](CC#N)OC1` [Example 73, {(2R,5S)-5-[2-(Cyanomethyl)-1H-imidazo[4,5-d]thieno[3,2-b]pyridin-1-yl]tetrahydro-2H-pyran-2-yl}acetonitrile], >10; with `N#CCc1nc2cnc3ccsc3c2n1[C@H]1CC[C@@H](CC#N)OC1` [Example 74, {(2S,5S)-5-[2-(Cyanomethyl)-1H-imidazo[4,5-d]thieno[3,2-b]pyridin-1-yl]tetrahydro-2H-pyran-2-yl}acetonitrile], >10. Consider `C[C@@H](O)c1nc2cnc3ccsc3c2n1[C@H]1CC[C@H](CNS(C)(=O)=O)OC1` [Example 75, N-[((2R,5S)-5-{2-[(1R)-1-Hydroxyethyl]-1H-imidazo[4,5-d]thieno[3,2-b]pyridin-1-yl}tetrahydro-2H-pyran-2-yl)methyl]methanesulfonamide], for which the JAK2/JAK1 is reported as >10. With `CC(C)OC(=O)NC[C@H]1CC[C@H](n2c([C@@H](C)O)nc3cnc4ccsc4c32)CO1` [Example 76, Isopropyl [((2R,5S)-5-{2-[(1R)-1-hydroxyethyl]-1H-imidazo[4,5-d]thieno[3,2-b]pyridin-1-yl}tetrahydro-2H-pyran-2-yl)methyl]carbamate] the figure was >10; with `COC(=O)NC[C@H]1CC[C@H](n2c([C@@H](C)O)nc3cnc4ccsc4c32)CC1` [Example 78, Methyl [(trans-4-{2-[(1R)-1-hydroxyethyl]-1H-imidazo[4,5-d]thieno[3,2-b]pyridin-1-yl}cyclohexyl)methyl]carbamate], >10. Take `CC(=O)NC[C@H]1CC[C@H](n2c([C@@H](C)O)nc3cnc4ccsc4c32)CC1` [Example 79, N-[(trans-4-{2-[(1R)-1-Hydroxyethyl]-1H-imidazo[4,5-d]thieno[3,2-b]pyridin-1-yl}cyclohexyl)methyl]acetamide]: the JAK2/JAK1 is recorded as >10. With `C[C@@H](O)c1nc2cnc3ccsc3c2n1[C@H]1CC[C@H](CNS(C)(=O)=O)CC1` [Example 80, N-[(trans-4-{2-[(1R)-1-Hydroxyethyl]-1H-imidazo[4,5-d]thieno[3,2-b]pyridin-1-yl}cyclohexyl)methyl]methanesulfonamide] the figure was >10; with `C[C@@H](O)c1nc2cnc3ccsc3c2n1[C@H]1CC[C@H](CNC(=O)N(C)C)CC1` [Example 81, N′-[(trans-4-{2-[(1R)-1-Hydroxyethyl]-1H-imidazo[4,5-d]thieno[3,2-b]pyridin-1-yl}cyclohexyl)methyl]-N,N-dimethylurea], >10.

As to `CCOC(=O)NC[C@H]1CC[C@H](n2c([C@@H](C)O)nc3cnc4ccsc4c32)CC1` [Example 82, Ethyl [(trans-4-{2-[(1R)-1-hydroxyethyl]-1H-imidazo[4,5-d]thieno[3,2-b]pyridin-1-yl}cyclohexyl)methyl]carbamate], the JAK2/JAK1 is >10.

In the case of `CCCOC(=O)NC[C@H]1CC[C@H](n2c([C@@H](C)O)nc3cnc4ccsc4c32)CC1` [Example 83, Propyl [(trans-4-{2-[(1R)-1-hydroxyethyl]-1H-imidazo[4,5-d]thieno[3,2-b]pyridin-1-yl}cyclohexyl)methyl]carbamate], the JAK2/JAK1 is >10. Under `CC(C)OC(=O)NC[C@H]1CC[C@H](n2c([C@@H](C)O)nc3cnc4ccsc4c32)CC1` [Example 84, Isopropyl [(trans-4-{2-[(1R)-1-hydroxyethyl]-1H-imidazo[4,5-d]thieno[3,2-b]pyridin-1-yl}cyclohexyl)methyl]carbamate] stands >10; under `C[C@@H](O)c1nc2cnc3ccsc3c2n1[C@H]1CC[C@H](CNC(=O)OC2CCOC2)CC1` (stereo partly drawn) [Example 85, Tetrahydrofuran-3-yl [(trans-4-{2-[(1R)-1-hydroxyethyl]-1H-imidazo[4,5-d]thieno[3,2-b]pyridin-1-yl}cyclohexyl)methyl]carbamate], >10; under `COC(=O)NC[C@H]1CC[C@H](n2c(CC#N)nc3cnc4ccsc4c32)CC1` [Example 86, Methyl({trans-4-[2-(cyanomethyl)-1H-imidazo[4,5-d]thieno[3,2-b]pyridin-1-yl]cyclohexyl}methyl)carbamate], >10.

Consider `CCOC(=O)NC[C@H]1CC[C@H](n2c(CC#N)nc3cnc4ccsc4c32)CC1` [Example 87, Ethyl({trans-4-[2-(cyanomethyl)-1H-imidazo[4,5-d]thieno[3,2-b]pyridin-1-yl]cyclohexyl}methyl)carbamate], for which the JAK2/JAK1 was >10. For `CC(C)OC(=O)NC[C@H]1CC[C@H](n2c(CC#N)nc3cnc4ccsc4c32)CC1` [Example 88, Isopropyl({trans-4-[2-(cyanomethyl)-1H-imidazo[4,5-d]thieno[3,2-b]pyridin-1-yl]cyclohexyl}methyl)carbamate], the JAK2/JAK1 is given as >10. Consider `CCC(=O)NC[C@H]1CC[C@H](n2c(CC#N)nc3cnc4ccsc4c32)CC1` [Example 89, N-({trans-4-[2-(Cyanomethyl)-1H-imidazo[4,5-d]thieno[3,2-b]pyridin-1-yl]cyclohexyl}methyl)propanamide], for which the JAK2/JAK1 is recorded as >10.
